From patent publication US12544372B2, “Methods of treating rheumatoid arthritis, chronic spontaneous urticaria, and systemic lupus erythematosis using an inhibitor of Bruton's tyrosine kinase” (Genentech, Inc., priority 2019, dated 2026)
Marks after values point to notes of the source that are not given here.

Tests used:
Format in all cases: in vivo, human
ACPA IgG = experiment: RA study biomarker: ACPA IgG
Procedure: (§1) Biomarkers were evaluated in serum or plasma samples at baseline and weeks 1, 4, and 12 in patients with available samples (cohort 1: n=438; cohort 2: n=86). The biomarkers evaluated in this assessment were chemokine [C-C motif] ligand 4 (CCL4), IL-6, and TNF-like cytokine 1A (TL1A). Total IgM, IgG, rheumatoid factor IgM autoantibody (RF), CCL4, TL1A, IL-6, and anti-CCP autoantibody (ACPA IgG) levels were analyzed with immunoassays. CD19^+ B cells and CD3^+ T cells were measured by flow cytometry. The proportion of patients achieving an ACR50 response at week 12 and the change in DAS28 score by week 12 were assessed relative to seropositivity (RF and/or ACPA positive at baseline) or baseline levels of RF in both cohorts. To select which biomarkers to evaluate in this trial, BTK-dependent myeloid biomarkers were identified using peripheral blood CD14^+ monocytes stimulated with immune-complexes in the presence or absence of a BTK inhibitor. In brief, the expression levels of genes in human monocytes were assayed under conditions of no stimulation; with human serum albumin immune complex stimulation; with stimulation and a low concentration of a BTK inhibitor with similar characteristics to fenebrutinib; or with stimulation and a high concentration of the BTK inhibitor. […] Genes annotated with cytokine activity were selected. The color bar represents normalized gene expression.

[1] = tested on: Plasmablast signature (IgJ, Mzb1, Txndc5); experiment: SLE study biomarker: plasmablast signature (RNA from blood)
Procedure: The following biomarkers were explored according to the biomarker objectives provided above in the Study Objectives. In Table 13, biomarkers are measured at baseline and subsequent timepoints during and after treatment. One set of biomarkers evaluated is the plasmablast signature. Plasmablasts are rapidly dividing, short-lived antibody secreting cells. While they represent a small proportion of B cells in the blood, they are responsible for a majority of antibody transcripts found in whole blood mRNA. The plasmablast signature comprises the biomarkers IgJ, Mzbl, and Txndc5. The gene expression of IgJ, Mzbl, and Txndc5 may be measured, for example, a polypeptide expression by evaluating the level of mRNA for said gene in a patient's blood relative to a reference level.

[2] = tested on: patients with moderate to severe active rheumatoid arthritis; experiment: Phase II RA study, Cohort 1 (inadequate response to MTX): clinical efficacy (ACR50, DAS28-3-CRP); conditions: for DAS 28-3 (CRP) Adjusted Mean / DAS 28-3 (CRP) Difference (d): Week 12; for ACR50 Responders / ACR50 Weighted Difference vs Placebo: Week 12 Day 84; for DAS 28-3 (CRP) Difference (d): versus placebo
From the text: A Two-Cohort Randomized Phase II, Double-Blind, Parallel Group Study in Patients with Active Rheumatoid Arthritis Evaluating the Efficacy and Safety of Fenebrutinib Compared with Placebo and Adalimumab in Patients with an Inadequate Response to Previous Methotrexate Therapy (Cohort 1) and Compared with Placebo in Patients with an Inadequate Response or Intolerance to Previous TNF Therapy (Cohort 2)
This study was designed to evaluate the efficacy and safety of fenebrutinib compared with placebo (Cohorts 1 and 2) and compared with adalimumab (ADA) (Cohort 1), each in combination with methotrexate (MTX), in patients with moderate to severe active rheumatoid arthritis (RA). Specific objectives and corresponding endpoints for the study are outlined below.
The study was a multicenter, Phase II, randomized, double-blind, placebo-controlled, active comparator (Cohort 1 only), parallel-group, dose-ranging study to evaluate the efficacy and safety of fenebrutinib in patients with moderate to severe active RA and an inadequate response to previous MTX therapy (Cohort 1) or MTX and TNF therapy who may have also had exposure to no more than one non-TNF inhibitor biologic (Cohort 2). Moderate to severe active RA was defined by ≥6 tender/painful joints on motion (68 joint count) and ≥6 swollen joints (66 joint count) at both screening and Day 1 (randomization), as well as a high sensitivity C-reactive protein (hsCRP)≥0. 400 mg/dL for Cohort 1 a hsCRP≥0.650 mg/dL for Cohort 2 at screening.
The study enrolled 578 patients. […] After a screening period of up to 28 days, patients in both cohorts received blinded study drug (oral fenebrutinib or matching placebo) for 12 weeks, after which they had the option to enter an 8 week follow-up period or enroll into an open-label extension (OLE) study. In addition to study drug, patients in Cohort 1 were also treated with subcutaneous (SC) comparatory drug (ADA or placebo).
Cohort 1 treatment regimens. […]
Disease Activity Score 28. The DAS 28-4 (CRP) and the DAS 28-4 (ESR) are calculated as follows. Assessments: (i) Tender joint count of 28 joints (TJC28), square-root transformed; (ii) Swollen joint count of 28 joints (SJC28), square-root transformed; (iii) Acute-phase reactant (erythrocyte sedimentation rate [ESR mm/hr] or high sensitivity C-reactive protein [hsCRP mg/L]), log transformed; (iv) Patient's global assessment of disease activity on visual analog scale (0-100 mm).
The DAS 28 is calculated according to the following formulas: DAS 28(4)−ESR=0.56×SQRT(TJC28)+0.28SQRT(SJC28)+0.70×ln(ESR)+0.014×PtGA DAS 28(4)−CRP=0.56×SQRT(TJC28)+0.28SQRT(SJC28)+0.36×ln(CRP+1)+0.014×PtGA+0.96 • Total score: Range, 0.49-9.07 • Disease remission≤2.6 • Disease activity: Low≤3.2; Moderate d>3.2 and ≤5.1; High>5.1 (PtGA=patient's global assessment of disease activity; ln=natural logarithm; SQRT=square root)
ACR Assessments. The ACR's definition for calculating improvement in RA (ACR20) is calculated as a 20% improvement in tender and swollen joint counts and a 20% improvement in 3 of the 5 remaining ACR-core set measures: patient and physician global assessments, pain, disability, and an acute-phase reactant. Similarly, ACR50 and ACR70 are calculated with the respective percent improvements. The Sponsor, on the basis of the component parts, will calculate the ACR score.
The specific components of the ACR Assessments used in this study are as follows: Tender/Painful Joint Count (68), Swollen Joint Count (66), Patient's Assessment of Arthritis Pain, Patient's Global Assessment of Arthritis, Physician's Global Assessment of Arthritis, CRP and HAQ-DI.

IL-6 = experiment: RA study biomarker: IL-6 (immunoassay)
Procedure: as §1

[3] = tested on: Rheumatoid factor (RF) IgM autoantibody; experiment: RA study biomarker: rheumatoid factor IgM autoantibody; conditions: for Rheumatoid factor (RF) IgM autoantibody levels: by Week 12 (92% placebo)
Procedure: as §1

Compound: C[C@H]1CN(C2COC2)CCN1c1ccc(Nc2cc(-c3ccnc(N4CCn5c(cc6c5CC(C)(C)C6)C4=O)c3CO)cn(C)c2=O)nc1 [fenebrutinib, (S)-2-(3′-(hydroxymethyl)-1-methyl-5-((5-(2-methyl-4-(oxetan-3-yl)piperazin-1-yl)pyridin-2-yl)amino)-6-oxo-1,6-dihydro-[3,4′-bipyridin]-2′-yl)-7,7-dimethyl-2,3,4,6,7,8-hexahydro-1H-cyclopenta[4,5]pyrrolo[1,2-a]pyrazin-1-one]
- ACPA IgG levels relative to placebo (ACPA IgG; cohort 1): not significantly changed relative to placebo
- ACPA IgG levels change (ACPA IgG; cohort 2, 200 mg twice daily, by week 12 (+15% in the placebo group)): −24%
- Plasmablast signature, Median Change from Baseline at Week 48 ([1]; 150 mg QD): −54.3%*
- Plasmablast signature, Median Change from Baseline at Week 48 ([1]; 200 mg BID): −51.7%*
- DAS 28-3 (CRP) Adjusted Mean ([2]; Cohort 1, 50 mg QD): −1.54
- ACR50 Responders ([2]; Cohort 1, 50 mg QD): 7 (17.5%)
- ACR50 Weighted Difference vs Placebo ([2]; Cohort 1, 50 mg QD): 8.00
- DAS 28-3 (CRP) Adjusted Mean ([2]; Cohort 1, 150 mg QD): −1.74
- ACR50 Responders ([2]; Cohort 1, 150 mg QD): 30 (27.5%)
- ACR50 Weighted Difference vs Placebo ([2]; Cohort 1, 150 mg QD): 12.93
- DAS 28-3 (CRP) Difference (d) ([2]; Cohort 1, 50 mg QD): −0.36
- DAS 28-3 (CRP) Difference (d) ([2]; Cohort 1, 150 mg QD): −0.57
- IL-6 reduction relative to placebo (IL-6; Cohort 1, by week 12): not observed
- IL-6 levels relative to placebo (IL-6; cohort 2, 200 mg twice daily, by week 12): −50%
- Rheumatoid factor (RF) IgM autoantibody levels ([3]; 150 mg QD arm): 66%
- Rheumatoid factor (RF) IgM autoantibody levels ([3]; 200 mg BID arm): 64%
- RF IgM median reduction relative to placebo ([3]; cohort 1, 200 mg twice daily, by week 12): −29%
